In patent US8192962B2, “Processes for detecting toxic substances” (Daikin Industries, Ltd., priority 2001, dated 2012):

Test system: Unknown protein yeast genes
Assay: DNA chip mRNA expression in yeast, unknown protein yeast genes (Table 1)
Type: cell-based, Saccharomyces cerevisiae S288C
Outline: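 Value is the scanned fluorescence intensity ratio of exposed versus chemical-free cells. Log-phase S288C yeast in YPD at 25° C. received one toxic substance for two hours, dosed to slow growth without killing; Cy3/Cy5-labeled cDNA from oligo-dT-purified mRNA was hybridized to a whole-genome chip at 65° C.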

SMILES: O=[N+]([O-])c1cc[n+]([O-])c2ccccc12 [(5), 4-nitroquinolin-N-oxide]
- The level of expressed mRNA in the presence of chemical substance/The level of expressed mRNA in the absence of chemical substance (yeast gene YAL053W, incubated two hours with chemical substance): 0.8
- The level of expressed mRNA in the presence of chemical substance/The level of expressed mRNA in the absence of chemical substance (yeast gene YAR023C): 1.3
- The level of expressed mRNA in the presence of chemical substance/The level of expressed mRNA in the absence of chemical substance (yeast gene YBL048W): 1.3
- The level of expressed mRNA in the presence of chemical substance/The level of expressed mRNA in the absence of chemical substance (yeast gene YBL107C): 1.2
- The level of expressed mRNA in the presence of chemical substance/The level of expressed mRNA in the absence of chemical substance (yeast gene YDL072C, incubated two hours with chemical substance): 1.4
- The level of expressed mRNA in the presence of chemical substance/The level of expressed mRNA in the absence of chemical substance (yeast gene YDL086W): 1.3
- The level of expressed mRNA in the presence of chemical substance/The level of expressed mRNA in the absence of chemical substance (yeast gene YDL129W): 1.3
- The level of expressed mRNA in the presence of chemical substance/The level of expressed mRNA in the absence of chemical substance (yeast gene YDL204W, incubated two hours with chemical substance): 1.0
- The level of expressed mRNA in the presence of chemical substance/The level of expressed mRNA in the absence of chemical substance (yeast gene YDL222C, incubated two hours with chemical substance): 1.0
- The level of expressed mRNA in the presence of chemical substance/The level of expressed mRNA in the absence of chemical substance (yeast gene YDR330W, incubated two hours with chemical substance): 1.2
- The level of expressed mRNA in the presence of chemical substance/The level of expressed mRNA in the absence of chemical substance (yeast gene YDR359C): 1.3
- The level of expressed mRNA in the presence of chemical substance/The level of expressed mRNA in the absence of chemical substance (yeast gene YDR411C, incubated two hours with chemical substance): 1.6
- The level of expressed mRNA in the presence of chemical substance/The level of expressed mRNA in the absence of chemical substance (yeast gene YDR511W, incubated two hours with chemical substance): 1.0
- The level of expressed mRNA in the presence of chemical substance/The level of expressed mRNA in the absence of chemical substance (yeast gene YDR533C): 1.3
- The level of expressed mRNA in the presence of chemical substance/The level of expressed mRNA in the absence of chemical substance (yeast gene YDR545W, incubated two hours with chemical substance): 1.4
- The level of expressed mRNA in the presence of chemical substance/The level of expressed mRNA in the absence of chemical substance (yeast gene YEL001C, incubated two hours with chemical substance): 0.9
- The level of expressed mRNA in the presence of chemical substance/The level of expressed mRNA in the absence of chemical substance (yeast gene YER004W, incubated two hours with chemical substance): 1.5
- The level of expressed mRNA in the presence of chemical substance/The level of expressed mRNA in the absence of chemical substance (yeast gene YER035W, incubated two hours with chemical substance): 1.5
- The level of expressed mRNA in the presence of chemical substance/The level of expressed mRNA in the absence of chemical substance (yeast gene YER079W, incubated two hours with chemical substance): 0.8
- The level of expressed mRNA in the presence of chemical substance/The level of expressed mRNA in the absence of chemical substance (yeast gene YER106W, incubated two hours with chemical substance): 1.6
- The level of expressed mRNA in the presence of chemical substance/The level of expressed mRNA in the absence of chemical substance (yeast gene YER121W): 1.3
- The level of expressed mRNA in the presence of chemical substance/The level of expressed mRNA in the absence of chemical substance (yeast gene YER158C, incubated two hours with chemical substance): 0.8
- The level of expressed mRNA in the presence of chemical substance/The level of expressed mRNA in the absence of chemical substance (yeast gene YER163C, incubated two hours with chemical substance): 0.8
- The level of expressed mRNA in the presence of chemical substance/The level of expressed mRNA in the absence of chemical substance (yeast gene YER175C, incubated two hours with chemical substance): 0.9
- The level of expressed mRNA in the presence of chemical substance/The level of expressed mRNA in the absence of chemical substance (yeast gene YER189W): 1.3
- The level of expressed mRNA in the presence of chemical substance/The level of expressed mRNA in the absence of chemical substance (yeast gene YFL006W, incubated two hours with chemical substance): 1.4
- The level of expressed mRNA in the presence of chemical substance/The level of expressed mRNA in the absence of chemical substance (yeast gene YFL010C, incubated two hours with chemical substance): 1.3
- The level of expressed mRNA in the presence of chemical substance/The level of expressed mRNA in the absence of chemical substance (yeast gene YFL024C): 1.1
- The level of expressed mRNA in the presence of chemical substance/The level of expressed mRNA in the absence of chemical substance (yeast gene YFL032W, incubated two hours with chemical substance): 0.9
- The level of expressed mRNA in the presence of chemical substance/The level of expressed mRNA in the absence of chemical substance (yeast gene YGL037C, incubated two hours with chemical substance): 0.9
- The level of expressed mRNA in the presence of chemical substance/The level of expressed mRNA in the absence of chemical substance (yeast gene YGL047W, incubated two hours with chemical substance): 1.3
- The level of expressed mRNA in the presence of chemical substance/The level of expressed mRNA in the absence of chemical substance (yeast gene YGL053W, incubated two hours with chemical substance): 2.0
- The level of expressed mRNA in the presence of chemical substance/The level of expressed mRNA in the absence of chemical substance (yeast gene YGL121C): 0.9
- The level of expressed mRNA in the presence of chemical substance/The level of expressed mRNA in the absence of chemical substance (yeast gene YGL199C, incubated two hours with chemical substance): 0.7
- The level of expressed mRNA in the presence of chemical substance/The level of expressed mRNA in the absence of chemical substance (yeast gene YGR038W): 1.3
- The level of expressed mRNA in the presence of chemical substance/The level of expressed mRNA in the absence of chemical substance (yeast gene YGR101W, incubated two hours with chemical substance): 1.2
- The level of expressed mRNA in the presence of chemical substance/The level of expressed mRNA in the absence of chemical substance (yeast gene YGR110W): 0.9
- The level of expressed mRNA in the presence of chemical substance/The level of expressed mRNA in the absence of chemical substance (yeast gene YGR130C, incubated two hours with chemical substance): 1.4
- The level of expressed mRNA in the presence of chemical substance/The level of expressed mRNA in the absence of chemical substance (yeast gene YGR142W): 1.3
- The level of expressed mRNA in the presence of chemical substance/The level of expressed mRNA in the absence of chemical substance (yeast gene YGR154C, incubated two hours with chemical substance): 1.2
- The level of expressed mRNA in the presence of chemical substance/The level of expressed mRNA in the absence of chemical substance (yeast gene YGR221C, incubated two hours with chemical substance): 0.9
- The level of expressed mRNA in the presence of chemical substance/The level of expressed mRNA in the absence of chemical substance (yeast gene YHR138C, incubated two hours with chemical substance): 1.5
- The level of expressed mRNA in the presence of chemical substance/The level of expressed mRNA in the absence of chemical substance (yeast gene YHR199C, incubated two hours with chemical substance): 1.2
- The level of expressed mRNA in the presence of chemical substance/The level of expressed mRNA in the absence of chemical substance (yeast gene YIL023C, incubated two hours with chemical substance): 1.3
- The level of expressed mRNA in the presence of chemical substance/The level of expressed mRNA in the absence of chemical substance (yeast gene YIL041W, incubated two hours with chemical substance): 0.5
- The level of expressed mRNA in the presence of chemical substance/The level of expressed mRNA in the absence of chemical substance (yeast gene YIL057C): 1.3
- The level of expressed mRNA in the presence of chemical substance/The level of expressed mRNA in the absence of chemical substance (yeast gene YIL087C, incubated two hours with chemical substance): 1.4
- The level of expressed mRNA in the presence of chemical substance/The level of expressed mRNA in the absence of chemical substance (yeast gene YIR041W): 1.3
- The level of expressed mRNA in the presence of chemical substance/The level of expressed mRNA in the absence of chemical substance (yeast gene YJL057C, incubated two hours with chemical substance): 1.5
- The level of expressed mRNA in the presence of chemical substance/The level of expressed mRNA in the absence of chemical substance (yeast gene YJL066C, incubated two hours with chemical substance): 0.8
- The level of expressed mRNA in the presence of chemical substance/The level of expressed mRNA in the absence of chemical substance (yeast gene YJL082W, incubated two hours with chemical substance): 1.7
- The level of expressed mRNA in the presence of chemical substance/The level of expressed mRNA in the absence of chemical substance (yeast gene YJL100W): 1.3
- The level of expressed mRNA in the presence of chemical substance/The level of expressed mRNA in the absence of chemical substance (yeast gene YJL151C, incubated two hours with chemical substance): 1.3
- The level of expressed mRNA in the presence of chemical substance/The level of expressed mRNA in the absence of chemical substance (yeast gene YJL152W, incubated two hours with chemical substance): 1.6
- The level of expressed mRNA in the presence of chemical substance/The level of expressed mRNA in the absence of chemical substance (yeast gene YJL161W, incubated two hours with chemical substance): 1.1
- The level of expressed mRNA in the presence of chemical substance/The level of expressed mRNA in the absence of chemical substance (yeast gene YJL171C, incubated two hours with chemical substance): 1.0
- The level of expressed mRNA in the presence of chemical substance/The level of expressed mRNA in the absence of chemical substance (yeast gene YJR008W, incubated two hours with chemical substance): 1.4
- The level of expressed mRNA in the presence of chemical substance/The level of expressed mRNA in the absence of chemical substance (yeast gene YJR054W, incubated two hours with chemical substance): 1.0
